# Like-named read-outs stand apart in the source and are kept apart here.
# Assays:
# HIV‐2 [ROD)] = test: Anti-HIV activity, HIV-2 in thymidine kinase-deficient CEM/TK^− cells; type: cell-based
# Method: (§1) Part 9. Anti-HIV activity assay.
# (§2) The produce was used as previously reported. 5 Inhibition of HIV-1(IIIB)- and HIV-2(ROD)-induced cytopathogenicity in wild-type CEM/0 and thymidine kinase-deficient CEM/TK– cell cultures was measured in […]
# (§3) containing appropriate dilutions of the test compounds. After 4−5 days of incubation at 37 °C in a CO2-controlled humidified atmosphere, CEM giant (syncytium) cell formation was examined microscopically. The […]
# (§4) giant cell formation by 50%.
# (§5) Part 10. Primer-extension assays. […]
# in vitro [1] = conditions: human
# Method: All TriPPPro‐compounds 10 and 20, as well as their parent nucleosides and the corresponding NTPs, were evaluated for their antiviral activity (expressed as EC50 values) against HIV‐1 (wild‐type CEM/0 cells) and HIV‐2 (wild‐type CEM/0 cells and thymidine kinase‐deficient (CEM/TK^−) cells) with concomitant determination of cytotoxicity in the same cell line (Table 3 ).
# HIV‐1 [HE] = test: Anti-HIV activity, HIV-1 in wild-type CEM/0 cells; type: cell-based; conditions: Human immunodeficiency virus 1, CCRF-CEM, read-out: Antiviral activity CEM/0 HIV‐1 [HE] EC50
# HIV‐2 [ROD] = test: Anti-HIV activity, HIV-2 in wild-type CEM/0 cells; type: cell-based; conditions: Human immunodeficiency virus 2, CCRF-CEM, read-out: Antiviral activity CEM/0 HIV‐2 [ROD] EC50
# Method: as §1, §2, §3, §4, §5
# [2] = Chemical hydrolysis in phosphate buffer saline (PBS, pH 7.3); type: physicochemical; conditions: PBS pH 7.3, 37 °C, read-out: PBS pH 7.3 t 1/2 (converted)
# Method: Part 4. Chemical Hydrolysis of TriPPPro-compounds 10 and 20.
# Second prepare 1.9 mM hydrolysis […]
# Then, aliquots of 50 µL human
# in vitro [3] = test: in vitro
# Method: First prepare 50 mM solutions of TriPPPro-compounds 10 and 20 in DMSO. […]
# First prepare 3.0 mM hydrolysis solutions of Tri PPPro-compounds 10 and 20 in DMSO and H2O: 21 µL stock solution (50 mM in DMSO) and 154 µL DMSO, and 175 µL Milli-Q water. Three-twelve different samples (20 […]
# The calculation of t1/2 was obtained using Origin again.
# Part 7. Hydrolysis of TriPPPro-compounds 10 and 20 in human plasma.
# µL 3.0 mM hydrolysis solutions) were prepared in 2 mL Eppendorf® vials. Then, aliquots of 50 µL human Plasma (Heparin or Citrate) were added to these samples and the reaction was started. The samples were […]
# incubated at 37 °C in a thermomixer for different time periods. The reaction was stopped by addition of 150 µL MeOH and kept on ice for 5 min. After centrifugation at 14,000 rpm for 22 min, the supernatants were filtered (Chromafil RC-20/15 MS, 0.2 μm) and stored in liquid nitrogen. When testing, aliquots of 25 0r 30 µL (injection volume) were analyzed by analytical HPLC (HPLC Method). The calculation of t1/2 was obtained using Origin […]
# Part 8. Preparation of cell extracts and human plasma. […]
# [4] = Human immunodeficiency virus 2, CEM-TK(-), thymidine kinase-deficient CEM/TK^− cells, mean ±SD n = 2–3; read-out: Antiviral activity CEM/TK^− HIV‐2 [ROD)] EC50
# [5] = CEM/0 cells (wild-type CD4+ T-cells)
# [6] = wild-type CEM/0 cells, mean ±SD n = 2–3
# [7] = Human immunodeficiency virus 2, CEM-TK(-), read-out: Antiviral activity CEM/TK^− HIV‐2 [ROD)] EC50
Compound,EC50 (HIV‐2 [ROD)]; [4]) [nM],CC50 (in vitro [1]; [5]) [nM],EC50 (HIV‐1 [HE]; [6]) [nM],EC50 (HIV‐2 [ROD]; [6]) [nM],half-life at 1.9 mM [2] [days],EC50 (HIV‐2 [ROD)]; [7]) [nM],EC50 (HIV‐1 [HE]) [nM],EC50 (HIV‐2 [ROD]) [nM],"Plasma (Citrate) t 1/2 (in vitro [3]; citrate-stabilized human plasma, 37 °C) [days]","Plasma (Heparin) t 1/2 (in vitro [3]; heparin-stabilized human plasma, 37 °C) [days]","t 1/2 in human plasma (over heparin and citrate plasma) (in vitro [3]; human plasma 37 °C, heparin and citrate taken together) [days]",CC50 (in vitro [1]) [nM],"EC50 (HIV‐2 [ROD)]; thymidine kinase-deficient CEM/TK^− cells, mean ±SD n = 2–3; read-out: Antiviral activity CEM/TK^− HIV‐2 [ROD)] EC50) [nM]"
CCCCCCCCCCCCCCCCCCOP(=O)(OCc1ccc(OC(=O)CCCC)cc1)OP(=O)(O)OP(=O)(O)OC[C@H]1O[C@@H](n2cc(C)c(=O)[nH]c2=O)C[C@@H]1F (stereo partly drawn) [10ey],1580 ± 1970,54100 ± 15800,300 ± 300,780 ± 300,> 16.7,,,,,,,,
CCCCCCCCCCCCCCCCCCOP(=O)(OCC(CC)CCCC)OP(=O)(O)OP(=O)(O)OC[C@H]1O[C@@H](n2cc(C)c(=O)[nH]c2=O)C[C@@H]1N=[N+]=[N-] (stereo partly drawn) [10bw],6100 ± 3000,45600,160 ± 190,54 ± 28,> 83.3,,,,,,,,
CCCCCCCCCCCCCCCCCCP(=O)(OCCCC)OP(=O)(O)OP(=O)(O)OC[C@H]1O[C@@H](n2ccc(=O)[nH]c2=O)C[C@@H]1F (stereo partly drawn) [10fx],,67300 ± 33800,,,> 83.3,150 ± 60,41 ± 44,29 ± 7.1,,,,,
"Cc1cn([C@H]2C[C@H](N=[N+]=[N-])[C@@H](COP(=O)(O)O)O2)c(=O)[nH]c1=O [AZTMP, reference compound]",,,,,,,,,0.188,0.0833,0.0833 to 0.188,,
CCCCCCCCCCCCCCCCCCP(=O)(OCCCC)OP(=O)(O)OP(=O)(O)OC[C@H]1O[C@@H](n2cc(/C=C/Br)c(=O)[nH]c2=O)C[C@@H]1O (stereo partly drawn) [10gx],,51500 ± 17000,,,> 41.7,24000 ± 2720,> 10000,> 10000,,,,,
"Cc1cn([C@H]2C[C@H](F)[C@@H](CO)O2)c(=O)[nH]c1=O [1f (FLT), FLT, reference compound]",> 100000,> 100000,2.5 ± 2.9,4.3 ± 1.7,,,,,,,,,
"O=c1[nH]c(=O)n([C@H]2C[C@H](F)[C@@H](CO)O2)cc1Cl [1d (FddClU), FddClU, reference compound]",> 100000,> 100000,820 ± 330,1950 ± 2630,,,,,,,,,
"Nc1nc(NC2CC2)c2ncn([C@H]3C=C[C@@H](CO)C3)c2n1 [1h (ABC), abacavir, reference compound]",,> 100000,,,,,,,,,,,
CCCCCCCCCCCCCCCCCCP(=O)(OCCCC)OP(=O)(O)OP(=O)(O)OC[C@H]1O[C@@H](n2cc(Cl)c(=O)[nH]c2=O)C[C@@H]1F (stereo partly drawn) [10dx],,54400 ± 15900,,,> 83.3,3210 ± 1120,2590 ± 710,2230 ± 1200,,,,,
CCCCCCCCCCCCCCCCCCP(=O)(OCCCC)OP(=O)(O)OP(=O)(O)OC[C@@H]1O[C@H](n2cc(F)c(N)nc2=O)CS1 (stereo partly drawn) [10cx],,46000,,,> 83.3,11,49 ± 45,94 ± 23,,,,,
"O=c1ccn([C@H]2C[C@H](F)[C@@H](CO)O2)c(=O)[nH]1 [1e (FddU), FddU, reference compound]",> 100000,> 100000,210 ± 20,150 ± 17,,,,,,,,,
CCCCCCCCCCCCCCCCCCOP(=O)(OCc1ccc(OC(=O)CCCC)cc1)OP(=O)(O)OP(=O)(O)OC[C@H]1O[C@@H](n2ccc(=O)[nH]c2=O)C[C@@H]1F (stereo partly drawn) [10fy],360 ± 240,43300 ± 5100,26 ± 28,14 ± 16,15,,,,,,,,
CCCCCCCCCCCCCCCCCCP(=O)(OCc1ccc(OC(=O)CCCC)cc1)OP(=O)(O)OP(=O)(O)OC[C@H]1O[C@@H](n2ccc(=O)[nH]c2=O)C[C@@H]1F (stereo partly drawn) [10fz],160 ± 40,42000 ± 10600,64 ± 80,39 ± 33,8.46,,,,,,,,
CCCCCCCCCCCCCCCCCCP(=O)(OCc1ccc(OC(=O)CCCC)cc1)OP(=O)(O)OP(=O)(O)OC[C@H]1O[C@@H](n2cc(C)c(=O)[nH]c2=O)C[C@@H]1F (stereo partly drawn) [10ez],1830 ± 1650,45300 ± 16700,460 ± 360,460 ± 400,2.12,,,,,,,,
CCCCCCCCCCCCCCCCCCOP(=O)(OCC(CC)CCCC)OP(=O)(O)OP(=O)(O)OC[C@H]1O[C@@H](n2cc(/C=C/Br)c(=O)[nH]c2=O)C[C@@H]1O (stereo partly drawn) [10gw],11400 ± 4240,60300 ± 20700,> 10000,4210 ± 370,> 83.3,,,,,,,,
CCCCCCCCCCCCCCCCCCOP(=O)(OCC(CC)CCCC)OP(=O)(O)OP(=O)(O)OC[C@H]1O[C@@H](n2cc(C)c(=O)[nH]c2=O)C[C@@H]1F (stereo partly drawn) [10ew],280 ± 120,52600 ± 10900,1500 ± 1390,860 ± 190,> 83.3,,,,,,,,
CCCCCCCCCCCCCCCCCCOP(=O)(OCC(CC)CCCC)OP(=O)(O)OP(=O)(O)OC[C@H]1O[C@@H](n2ccc(=O)[nH]c2=O)C[C@@H]1F (stereo partly drawn) [10fw],110 ± 140,63500 ± 27200,370 ± 470,140 ± 62,> 83.3,,,,,,,,
CCCCCCCCCCCCCCCCCCOP(=O)(OCC(CC)CCCC)OP(=O)(O)OP(=O)(O)OC[C@@H]1C=C[C@H](n2cnc3c(NC4CC4)nc(N)nc32)C1 (stereo partly drawn) [10hw],26 ± 35,> 100000,100 ± 30,180 ± 110,7.54,,,,,,,,
CCCCCCCCCCCCCCCCCCOP(=O)(OCC(CC)CCCC)OP(=O)(O)OP(=O)(O)OC[C@@H]1O[C@H](n2cc(F)c(N)nc2=O)CS1 (stereo partly drawn) [10cw],120 ± 100,64000 ± 23600,210 ± 60,180 ± 100,> 83.3,,,,,,,,
"Cc1cn([C@H]2C[C@H](N=[N+]=[N-])[C@@H](CO[P@](=O)(O)O[P@](=O)(O)OP(=O)(O)O)O2)c(=O)[nH]c1=O [AZTTP, reference compound]",,> 100000,,,,57900 ± 10900,6.9 ± 8.7,5.5 ± 4,,,,,
"Nc1nc(=O)n([C@@H]2CS[C@H](CO)O2)cc1F [1c (FTC), FTC, reference compound]",10 ± 10,> 100000,8.6 ± 5.7,20 ± 1,,,,,,,,,
CCCCCCCCCCCCCCCCCCOP(=O)(OCC(CC)CCCC)OP(=O)(O)OP(=O)(O)OC[C@H]1O[C@@H](n2cc(Cl)c(=O)[nH]c2=O)C[C@@H]1F (stereo partly drawn) [10dw],> 20000,56100 ± 15800,1200 ± 50,2200 ± 1240,> 83.3,,,,,,,,
CCCCCCCCCCCCCCCCCCP(=O)(OCCCC)OP(=O)(O)OP(=O)(O)OC[C@H]1O[C@@H](n2cc(C)c(=O)[nH]c2=O)C[C@@H]1F (stereo partly drawn) [10ex],,43600,,,6.17,1010 ± 1140,390 ± 130,520 ± 670,,,,,
"O=c1[nH]c(=O)n([C@H]2C[C@H](O)[C@@H](CO)O2)cc1/C=C/Br [1g (BVDU), BVDU, reference compound]",> 250000,,> 250000,> 250000,,,,,,,,207000 ± 60000,
CCCCCCCCCCCCCCCCCCP(=O)(OCc1ccc(OC(=O)CCCC)cc1)OP(=O)(O)OP(=O)(O)OC[C@@H]1O[C@H](n2cc(F)c(N)nc2=O)CS1 (stereo partly drawn) [10cz],20 ± 21,66000 ± 35600,160 ± 60,140 ± 40,> 62.5,,,,,,,,
"Cc1cn([C@H]2C[C@H](N=[N+]=[N-])[C@@H](CO)O2)c(=O)[nH]c1=O [1b (AZT), AZT, reference compound]",> 150000,> 100000,14 ± 8.5,3.4 ± 2.1,,,,,,,,,> 100000
CCCCCCCCCCCCCCCCCCP(=O)(OCc1ccc(OC(=O)CCCC)cc1)OP(=O)(O)OP(=O)(O)OC[C@H]1O[C@@H](n2cc(/C=C/Br)c(=O)[nH]c2=O)C[C@@H]1O (stereo partly drawn) [10gz],11200 ± 4990,43900 ± 8300,7580 ± 2200,8010 ± 2810,> 62.5,,,,,,,,

# Source: paper PMC10754118, “Lipophilic Nucleoside Triphosphate Prodrugs of Anti‐HIV Active Nucleoside Analogs as Potential Antiviral Compounds” (Advanced Science, 2023)
